From patent US11377423B2, “Inhibitors of histone deacetylase” (The Broad Institute, Inc., priority 2012, dated 2022)
Read-outs that look alike come from different tables or passages of the source. Blank lines part the entries; values can stand above or below the molecule they belong to.

Legend:
[1] = biological target: T1, HDAC2 (Homo sapiens (Human), UniProt Q92769); experiment: Caliper HDAC enzymatic endpoint assay, HDAC2; type: biochemical
[2] = biological target: T2, HDAC1 (Homo sapiens (Human), UniProt Q13547); experiment: Caliper HDAC enzymatic endpoint assay, HDAC1; type: biochemical
[3] = biological target: T3, HDAC3 (Homo sapiens (Human), UniProt O15379); experiment: Caliper HDAC enzymatic endpoint assay, HDAC3; type: biochemical
[4] = biological target: T2, HDAC1; experiment: Kinetics of the inhibition of HDAC1; settings: for T1/2: HDAC1 residence
[5] = biological target: T1, HDAC2
[6] = tested on: HDACs 1, 2, 3, 4, 5, 6, 7, 8, and 9; experiment: HDAC selectivity panel (Caliper), isoform selectivity; settings: from IC50 values
[7] = biological target: HDAC6 (Homo sapiens (Human), UniProt Q9UBN7); experiment: Caliper HDAC enzymatic endpoint assay, HDAC6; type: biochemical; settings: Table 2C; read-out: HDAC6 IC50 after 0 hr preincubation
[8] = biological target: HDAC7 (Homo sapiens (Human), UniProt Q8WUI4); experiment: Caliper HDAC enzymatic endpoint assay, HDAC7; type: biochemical; settings: Table 2C; read-out: HDAC7 IC50 after 0 hr preincubation
[9] = biological target: HDAC5 (Homo sapiens (Human), UniProt Q9UQL6); experiment: Caliper HDAC enzymatic endpoint assay, HDAC5; type: biochemical; settings: Table 2C; read-out: HDAC5 IC50 after 0 hr preincubation
[10] = biological target: HDAC4 (Homo sapiens (Human), UniProt P56524); experiment: Caliper HDAC enzymatic endpoint assay, HDAC4; type: biochemical; settings: Table 2C; read-out: HDAC4 IC50 after 0 hr preincubation
[11] = tested on: human megakaryocyte progenitors; experiment: Growth of human megakaryocyte progenitors (surrogate assay for platelet depletion); type: cell-based
Procedure: Compounds of the invention were evaluated for their effect on the growth of human megakaryocyte progenitors (surrogate assay for platelet depletion). Human CD34+ cells were grown in a collagen-based gel (Megacult-C, Stemcell Technologies). […] 100% indicates no difference in cell viability relative to the DMSO treated cells. […] This is the desired effect.

[12] = biological target: HDAC8 (Homo sapiens (Human), UniProt Q9BY41); experiment: Caliper HDAC enzymatic endpoint assay, HDAC8; type: biochemical; settings: Table 2C; read-out: HDAC8 IC50 after 0 hr preincubation
[13] = biological target: HDAC9 (Homo sapiens (Human), UniProt Q9UKV0); experiment: Caliper HDAC enzymatic endpoint assay, HDAC9; type: biochemical; settings: Table 2C; read-out: HDAC9 IC50 after 0 hr preincubation
[14] = tested on: INS-1E cells; experiment: Cytokine-induced beta-cell apoptosis, caspase-3 activity assay; type: cell-based, rat; settings: IL-1β, IFN-γ, TNF-α, 48 hours, 5 μM compound
Procedure: Compounds of the invention were evaluated for their ability to suppress cytokine-induced beta-cell apoptosis and palmitate and/or glucose-induced beta-cell apoptosis by inhibition of HDAC3. Assay protocols were as follows: Cell culture and reagents. […] Recombinant IL-1β, IFN-γ, and TNF-α were purchased from R&D Systems. Palmitate, D-glucose and fatty acids-free low endotoxin BSA were purchased from Sigma. Palmitate was solubilized in 90% ethanol, heated to 60° C. and used 1:100 dilution in media. Caspase-Glo 3/7 was from Promega and 3-(4,5-dimethylthiazol-2-yl)-2,5-diphenyltetrazolium bromide (MTT) was from Calbiochem. Antibodies for HDAC1, HDAC2, HDAC3, pJNK, JNK cleaved caspase-9 and secondary horseradish-peroxidase conjugated goat anti-mouse and anti-rabbit antibodies were from Cell Signaling. Antibody for beta-actin was from Sigma and antibody against CHOP (GADD153) from Abcam. HDAC inhibitors were purchased from Selleck Chemicals or synthesized in-house. Primers were from Integrated DNA Technologies, High Capacity cDNA RT kit and SYBR green master mix were purchased from Applied Biosystems. INS-1E cells were seeded at 5,000 cells/well using a Multidrop Combi (Thermo Labsystems) in white optical 384-well plates (Corning Life Sciences). After overnight incubation, medium was removed and 50 μL RPMI containing the treated compound, 1% FBS and either a combination of cytokines (10 ng/mL IL-1β, 50 ng/mL IFN-γ, 25 ng/mL TNF-α) or 0.5 mM sodium palmitate was added to every well. After two-day treatment, medium was removed and 20 μL Caspase-Glo 3/7 reagent was added. Luminescence was measured after a two-hour incubation using an Envision plate reader (PerkinElmer). […] The rat INS-1E cell line was simultaneously treated for 48 hours with a combination of pro-inflammatory cytokines IL-1β, IFN-γ, and TNF-α, and the indicated test compounds. […] Compound 9, a negative control, had no effect. […] FIGS. 9C and 9D show a dose-response analysis of HDAC inhibition in suppression of cytokine-induced beta-cell apoptosis. […] This could translate to a larger therapeutic window. […]

[15] = biological target: T3, HDAC3; experiment: Kinetics of the inhibition of HDAC3
[16] = biological target: T1, HDAC2; experiment: Kinetics of the inhibition of HDAC2
[17] = biological target: T2, HDAC1; experiment: Binding constant from HDAC1 inactivation kinetics; settings: HDAC1, values marked *; read-out: Ki (binding constant derived from HDAC1 inactivation kinetics)
[18] = read-out: HDAC2 IC50 3 h Preinc, Table 2A, 3 h preincubation
[19] = read-out: HDAC1 IC50 3 h Preinc, Table 2A, 3 h preincubation
[20] = read-out: HDAC3 IC50 3 h Preinc, Table 2A, 3 h preincubation
[21] = read-out: HDAC2 IC50 3 h Prein, Table 2, 3 h preincubation
[22] = read-out: HDAC1 IC50 3 h Prein, Table 2, 3 h preincubation
[23] = read-out: HDAC3 IC50 3 h Prein, Table 2, 3 h preincubation

T3 sequence (O15379 whole entry): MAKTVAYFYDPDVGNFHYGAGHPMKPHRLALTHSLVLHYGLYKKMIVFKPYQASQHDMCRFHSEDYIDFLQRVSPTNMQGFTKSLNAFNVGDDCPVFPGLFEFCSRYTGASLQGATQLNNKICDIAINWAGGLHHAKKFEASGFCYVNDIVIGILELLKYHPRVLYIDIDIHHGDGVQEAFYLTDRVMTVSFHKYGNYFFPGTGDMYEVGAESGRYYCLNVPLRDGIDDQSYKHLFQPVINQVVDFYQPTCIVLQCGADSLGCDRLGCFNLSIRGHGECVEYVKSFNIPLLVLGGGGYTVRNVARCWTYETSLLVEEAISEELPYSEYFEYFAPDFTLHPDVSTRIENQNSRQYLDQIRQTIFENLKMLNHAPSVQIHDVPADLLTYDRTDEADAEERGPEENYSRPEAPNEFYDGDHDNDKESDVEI
T3 sequence (Q9Y618 395-489 partner): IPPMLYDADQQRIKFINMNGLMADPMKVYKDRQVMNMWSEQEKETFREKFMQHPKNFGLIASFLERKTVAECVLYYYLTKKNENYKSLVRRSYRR
T2 sequence (Q13547 whole entry): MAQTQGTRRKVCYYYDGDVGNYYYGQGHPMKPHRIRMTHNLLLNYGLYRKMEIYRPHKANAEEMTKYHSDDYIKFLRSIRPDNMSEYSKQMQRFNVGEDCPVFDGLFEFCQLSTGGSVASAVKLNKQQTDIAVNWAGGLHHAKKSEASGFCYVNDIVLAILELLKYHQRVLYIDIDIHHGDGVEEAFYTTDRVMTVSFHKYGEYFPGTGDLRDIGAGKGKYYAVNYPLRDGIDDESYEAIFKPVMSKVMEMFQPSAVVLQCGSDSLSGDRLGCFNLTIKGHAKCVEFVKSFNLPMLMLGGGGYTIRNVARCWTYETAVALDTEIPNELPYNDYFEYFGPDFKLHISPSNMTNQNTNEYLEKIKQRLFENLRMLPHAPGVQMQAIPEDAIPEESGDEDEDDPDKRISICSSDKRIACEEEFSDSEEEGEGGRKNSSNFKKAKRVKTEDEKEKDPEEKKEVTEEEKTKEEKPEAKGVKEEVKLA
T1 sequence (Q92769 whole entry): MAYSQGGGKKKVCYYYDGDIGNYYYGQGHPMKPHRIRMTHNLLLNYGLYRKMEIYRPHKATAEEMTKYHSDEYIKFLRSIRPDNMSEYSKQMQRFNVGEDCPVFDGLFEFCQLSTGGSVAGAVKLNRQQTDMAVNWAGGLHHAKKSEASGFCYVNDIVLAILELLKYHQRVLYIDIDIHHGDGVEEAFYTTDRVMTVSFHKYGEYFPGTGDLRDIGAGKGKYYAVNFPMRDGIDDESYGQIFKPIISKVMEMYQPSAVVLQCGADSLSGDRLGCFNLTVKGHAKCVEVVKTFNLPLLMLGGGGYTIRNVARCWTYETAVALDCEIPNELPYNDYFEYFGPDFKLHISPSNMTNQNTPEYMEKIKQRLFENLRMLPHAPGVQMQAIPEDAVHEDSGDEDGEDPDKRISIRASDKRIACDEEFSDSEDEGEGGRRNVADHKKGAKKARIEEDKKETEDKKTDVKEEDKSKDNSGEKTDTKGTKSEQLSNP
Chain of HDAC6 (Q9UBN7 whole entry): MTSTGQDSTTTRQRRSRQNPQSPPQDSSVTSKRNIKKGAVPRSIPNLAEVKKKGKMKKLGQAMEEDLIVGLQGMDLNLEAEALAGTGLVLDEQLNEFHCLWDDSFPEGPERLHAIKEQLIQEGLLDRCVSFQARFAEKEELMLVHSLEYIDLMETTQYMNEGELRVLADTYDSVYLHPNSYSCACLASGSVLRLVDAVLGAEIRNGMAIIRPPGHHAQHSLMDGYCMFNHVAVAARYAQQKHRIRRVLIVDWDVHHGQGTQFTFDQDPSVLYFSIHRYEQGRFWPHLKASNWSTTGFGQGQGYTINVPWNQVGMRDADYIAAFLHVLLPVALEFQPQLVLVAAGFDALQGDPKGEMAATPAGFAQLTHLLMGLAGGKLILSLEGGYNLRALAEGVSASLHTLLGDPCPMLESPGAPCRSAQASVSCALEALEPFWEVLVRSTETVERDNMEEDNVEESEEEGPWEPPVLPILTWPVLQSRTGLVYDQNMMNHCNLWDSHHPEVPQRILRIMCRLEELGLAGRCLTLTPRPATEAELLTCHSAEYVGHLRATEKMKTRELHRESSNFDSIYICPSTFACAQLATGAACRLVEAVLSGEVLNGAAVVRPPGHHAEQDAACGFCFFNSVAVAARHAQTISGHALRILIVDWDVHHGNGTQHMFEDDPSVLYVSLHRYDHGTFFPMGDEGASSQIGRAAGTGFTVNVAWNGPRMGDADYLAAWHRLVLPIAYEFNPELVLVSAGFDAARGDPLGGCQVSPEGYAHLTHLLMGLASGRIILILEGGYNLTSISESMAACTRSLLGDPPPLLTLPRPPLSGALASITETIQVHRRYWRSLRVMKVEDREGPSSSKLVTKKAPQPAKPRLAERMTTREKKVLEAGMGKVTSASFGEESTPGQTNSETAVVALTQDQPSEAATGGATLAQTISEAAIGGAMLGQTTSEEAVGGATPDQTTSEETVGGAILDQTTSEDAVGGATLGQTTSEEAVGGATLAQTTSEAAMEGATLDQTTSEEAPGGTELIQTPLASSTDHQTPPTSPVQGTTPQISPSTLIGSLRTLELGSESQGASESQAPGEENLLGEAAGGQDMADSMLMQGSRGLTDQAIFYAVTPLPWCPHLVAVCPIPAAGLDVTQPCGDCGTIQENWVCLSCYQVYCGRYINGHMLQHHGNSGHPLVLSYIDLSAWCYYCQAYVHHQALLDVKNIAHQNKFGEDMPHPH
Chain of HDAC7 (Q8WUI4 whole entry): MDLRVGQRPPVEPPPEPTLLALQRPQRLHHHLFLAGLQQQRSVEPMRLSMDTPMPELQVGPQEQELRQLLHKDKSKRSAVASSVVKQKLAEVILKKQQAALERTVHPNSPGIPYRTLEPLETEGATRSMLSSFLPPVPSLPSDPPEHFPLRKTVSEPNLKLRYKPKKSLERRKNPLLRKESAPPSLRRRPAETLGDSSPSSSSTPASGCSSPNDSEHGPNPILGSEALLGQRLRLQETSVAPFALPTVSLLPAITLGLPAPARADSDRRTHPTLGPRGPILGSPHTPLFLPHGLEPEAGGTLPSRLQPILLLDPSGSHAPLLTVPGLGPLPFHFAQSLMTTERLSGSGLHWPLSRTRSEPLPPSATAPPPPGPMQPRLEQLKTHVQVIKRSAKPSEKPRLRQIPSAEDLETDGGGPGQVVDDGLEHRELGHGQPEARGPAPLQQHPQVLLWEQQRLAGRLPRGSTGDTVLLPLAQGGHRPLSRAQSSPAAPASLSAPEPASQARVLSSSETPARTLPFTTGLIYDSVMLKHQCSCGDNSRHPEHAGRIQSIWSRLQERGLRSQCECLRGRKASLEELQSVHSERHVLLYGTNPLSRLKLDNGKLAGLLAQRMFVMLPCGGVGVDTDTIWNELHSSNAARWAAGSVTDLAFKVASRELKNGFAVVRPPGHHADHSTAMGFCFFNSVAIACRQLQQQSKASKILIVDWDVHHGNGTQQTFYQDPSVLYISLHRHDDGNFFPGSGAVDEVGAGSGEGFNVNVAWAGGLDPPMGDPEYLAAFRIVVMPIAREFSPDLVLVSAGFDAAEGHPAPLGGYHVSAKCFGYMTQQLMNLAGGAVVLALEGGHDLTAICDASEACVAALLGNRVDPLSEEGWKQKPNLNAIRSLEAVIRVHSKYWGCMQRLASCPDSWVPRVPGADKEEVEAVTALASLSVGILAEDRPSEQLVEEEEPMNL
Chain of HDAC8 (Q9BY41 whole entry): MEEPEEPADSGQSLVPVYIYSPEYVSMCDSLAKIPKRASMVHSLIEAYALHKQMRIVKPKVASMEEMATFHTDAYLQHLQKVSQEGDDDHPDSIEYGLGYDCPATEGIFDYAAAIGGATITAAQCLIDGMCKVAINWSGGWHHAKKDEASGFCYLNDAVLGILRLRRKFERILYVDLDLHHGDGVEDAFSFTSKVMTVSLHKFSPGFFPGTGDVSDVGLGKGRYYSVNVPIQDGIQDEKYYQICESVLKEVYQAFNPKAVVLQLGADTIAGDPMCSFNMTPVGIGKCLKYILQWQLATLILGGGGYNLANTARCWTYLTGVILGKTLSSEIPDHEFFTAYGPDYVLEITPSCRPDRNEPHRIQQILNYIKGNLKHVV
Chain of HDAC9 (Q9UKV0 whole entry): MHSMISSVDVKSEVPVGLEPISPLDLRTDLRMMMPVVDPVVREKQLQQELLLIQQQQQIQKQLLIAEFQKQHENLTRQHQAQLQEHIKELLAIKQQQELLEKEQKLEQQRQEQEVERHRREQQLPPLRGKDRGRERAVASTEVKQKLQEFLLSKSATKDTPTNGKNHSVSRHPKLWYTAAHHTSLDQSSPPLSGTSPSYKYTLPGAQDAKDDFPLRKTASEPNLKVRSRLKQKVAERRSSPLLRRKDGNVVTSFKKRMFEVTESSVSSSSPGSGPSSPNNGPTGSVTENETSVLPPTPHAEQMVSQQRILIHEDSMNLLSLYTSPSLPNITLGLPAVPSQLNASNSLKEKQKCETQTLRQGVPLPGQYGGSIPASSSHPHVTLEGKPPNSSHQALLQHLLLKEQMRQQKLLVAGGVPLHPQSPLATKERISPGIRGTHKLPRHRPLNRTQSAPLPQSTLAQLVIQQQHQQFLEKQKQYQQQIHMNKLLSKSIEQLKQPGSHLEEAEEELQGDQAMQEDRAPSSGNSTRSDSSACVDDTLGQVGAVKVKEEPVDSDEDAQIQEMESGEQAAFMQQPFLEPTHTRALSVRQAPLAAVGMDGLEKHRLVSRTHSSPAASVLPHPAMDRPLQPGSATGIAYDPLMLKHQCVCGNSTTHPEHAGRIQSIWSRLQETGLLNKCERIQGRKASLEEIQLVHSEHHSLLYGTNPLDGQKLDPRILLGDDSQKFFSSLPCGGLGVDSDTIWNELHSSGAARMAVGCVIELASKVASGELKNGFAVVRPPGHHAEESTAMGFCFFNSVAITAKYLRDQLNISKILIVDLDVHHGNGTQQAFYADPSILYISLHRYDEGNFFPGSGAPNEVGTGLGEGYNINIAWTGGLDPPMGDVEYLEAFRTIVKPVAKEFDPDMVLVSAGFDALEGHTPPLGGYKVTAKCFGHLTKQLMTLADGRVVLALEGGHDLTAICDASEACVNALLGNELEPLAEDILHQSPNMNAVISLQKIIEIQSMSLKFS

T1/2 [4]: 1.77 h
T1/2 [5]: 1.05 h
Structure (SMILES): Nc1ccccc1NC(=O)c1ccc(CNC(=O)OCc2cccnc2)cc1 [MS-275, reference compound]

IC50 [1, 21]: > 33000 nM
IC50 [7]: > 33000 nM
IC50 [8]: > 33000 nM
IC50 [9]: > 33000 nM
IC50 [10]: > 33000 nM
IC50 [12]: > 33000 nM
IC50 [2, 22]: > 33000 nM
IC50 [13]: > 33000 nM
IC50 [3, 23]: > 33000 nM
Structure (SMILES): CC(=O)Nc1ccc(C(=O)Nc2ccc(C)cc2N)cc1 [Compound 9, 4-acetamido-N-(2-amino-4-methylphenyl)benzamide]
effect on growth and viability of human megakaryocyte progenitor cells ([11]; 0.1, 1, 10 and 20 μM, relative to DMSO treated cells): no significant effect on growth and viability
suppression of cytokine-induced beta-cell apoptosis (caspase activity) [14]: no effect

IC50 [1, 21]: 3540 nM
IC50 [2, 22]: 1730 nM
IC50 [3, 23]: 299 nM
Structure (SMILES): CC(=O)Nc1ccc(C(=O)Nc2cc(Br)ccc2N)cc1 [Compound 5, 4-acetamido-N-(2-amino-5-bromophenyl)benzamide]

IC50 [1, 18]: 157 nM
IC50 ([1]; read-out: HDAC2 IC50 @3 hr, 3 hr preincubation): 157 nM
koff [4]: > 0.00333 s⁻¹
Kon ([4]; HDAC1): 1.000 min^−1, uM^−1
T1/2 [4]: <0.067 h
Ki [15]: 93 nM
koff [15]: 0.000147 s⁻¹
loss in potency for HDAC3 (Ki) compared to MS-275 [15]: 8 fold
Kon ([15]; HDAC3): 0.093 min^−1, uM^−1
T1/2 ([15]; HDAC3 residence): 1.32 h
less selective than compound 1 ([15]; Ki selectivity HDAC3 versus HDAC1 and 2): 100 fold
binding selectivity (Ki) for HDAC3 versus HDAC1 ([15]; thermodynamic (Ki)): 1.7 fold
binding selectivity (Ki) for HDAC3 versus HDAC2 ([15]; thermodynamic (Ki)): 1.7 fold
Ki [16]: 160 nM
koff [16]: 0.000633 s⁻¹
Kon ([16]; HDAC2): 0.24 min^−1, uM^−1
T1/2 ([16]; HDAC2 residence): 0.283 h
IC50 [2, 19]: 120 nM
IC50 ([2]; read-out: HDAC1 IC50 @3 hr, 3 hr preincubation): 120 nM
KI (inactivation) [17]: 160 nM
IC50 [3, 20]: 36 nM
IC50 ([3]; read-out: HDAC3 IC50 @3 hr, 3 hr preincubation): 36 nM
Structure (SMILES): Nc1cc(F)ccc1NC(=O)c1ccc(CNC(=O)OCc2cccnc2)cc1 [Compound 1A, reference compound]

Second part, the molecule before the results:

Structure (SMILES): Nc1ccccc1NC(=O)c1ccc(CNC(=O)/C=C/c2cccnc2)cc1 [Cmpd 3A, reference compound]
IC50 [1, 18]: 23 nM
IC50 [2, 19]: 4 nM
IC50 [3, 20]: 22 nM

Structure (SMILES): CC(=O)Nc1ccc(C(=O)Nc2ccc(F)cc2N)c(F)c1 [Compound 6, 4-acetamido-N-(2-amino-4-fluorophenyl)-2-fluorobenzamide]
IC50 [1, 21]: 3120 nM
HDAC isoform selectivity [6]: HDAC3 selective compound
IC50 [2, 22]: 1380 nM
IC50 [3, 23]: 80 nM

Structure (SMILES): Nc1cc(F)ccc1NC(=O)c1ccccc1 [Compound 7, N-(2-amino-4-fluorophenyl)benzamide]
IC50 [1, 21]: 12700 nM
HDAC isoform selectivity [6]: HDAC3 selective compound
IC50 [2, 22]: 7950 nM
IC50 [3, 23]: 418 nM

Structure (SMILES): CC(=O)Nc1ccc(C(=O)Nc2cc(-c3ccncc3)ccc2N)cc1 [BRD2492, reference compound]
IC50 ([1]; read-out: HDAC2 IC50 after 3 hr preincubation, Table 2B): 19 nM
IC50 [7]: > 33000 nM
IC50 [8]: > 33000 nM
IC50 [9]: > 33000 nM
IC50 [10]: > 33000 nM
toxicity to human megakaryocyte progenitors at higher concentrations ([11]; particularly at 10 μM and 20 μM): highly toxic
IC50 [12]: > 33000 nM
IC50 ([2]; read-out: HDAC1 IC50 after 3 hr preincubation, Table 2B): 2 nM
IC50 [13]: > 33000 nM
IC50 ([3]; read-out: HDAC3 IC50 after 3 hr preincubation, Table 2B): 2080 nM

Structure (SMILES): Nc1cc(F)ccc1NC(=O)c1ccc(CNc2nccc(-c3cccnc3)n2)cc1 [Cmpd 2A, reference compound]
IC50 [1, 18]: 18 nM
IC50 [2, 19]: 12 nM
IC50 [3, 20]: 17 nM
